The NIST ThermoML archive (doi:10.1021/je801006q)

How the values were obtained:
[1] = excess molar enthalpy (molar enthalpy of mixing); xn = mol fraction of the nth substance listed; conditions: 298.15 K, 101 kPa, Liquid, Calvet calorimetry
[2] = xn = mol fraction of the nth substance listed; conditions: 101 kPa, Liquid
[3] = 101.33 kPa, Liquid

O=C1CCCN1 [2-pyrrolidinone] + CCC(C)O
[1]
Conditions	excess molar enthalpy [kcal/mol]
x1 = 0.0555	0.0404
x1 = 0.1212	0.0663
x1 = 0.1842	0.0823
x1 = 0.2443	0.0929
x1 = 0.3301	0.0988
x1 = 0.3903	0.0996
x1 = 0.4444	0.0966
x1 = 0.4998	0.092
x1 = 0.5887	0.0806
x1 = 0.6799	0.0665
x1 = 0.7389	0.0565
x1 = 0.8478	0.037
x1 = 0.9309	0.0215

[2]
Conditions	mass density, 293.15 K [kg/m3]	mass density, 298.15 K [kg/m3]	mass density, 303.15 K [kg/m3]	viscosity, 293.15 K [mPa·s]	viscosity, 298.15 K [mPa·s]	viscosity, 303.15 K [mPa·s]
x1 = 0.0995	831.58	828.13	824.55	3.409	2.829	2.3
x1 = 0.1675	849.93	846.53	842.94	3.108	2.409	1.896
x1 = 0.2444	871.14	867.8	864.23	3.034	2.443	1.707
x1 = 0.2996	886.73	883.42	879.83	2.84	2.461	1.724
x1 = 0.3945	914.18	910.92	907.3	2.982	2.561	1.834
x1 = 0.4531	931.54	928.3	924.68	3.084	2.698	2.068
x1 = 0.4967	944.64	941.43	937.81	3.237	2.856	2.348
x1 = 0.5546	962.32	959.15	955.53	3.668	3.241	2.702
x1 = 0.6402	989.06	985.96	982.36	4.673	4.125	3.405
x1 = 0.7126	1012.23	1009.19	1005.62	5.995	5.238	4.304
x1 = 0.7895	1037.38	1034.41	1030.84	7.928	6.821	5.519
x1 = 0.8438	1055.57	1052.66	1049.12	9.691	8.277	6.842
x1 = 0.9096	1078.09	1075.19	1071.64	11.74	10.1	8.162
x1 = 0.9767	1101.54	1098.73	1095.14	14.73	12.47	10.15

O=C1CCCN1 [2-pyrrolidinone] + CCCCO
[1]
Conditions	excess molar enthalpy [kcal/mol]
x1 = 0.0564	0.0234
x1 = 0.1225	0.039
x1 = 0.1877	0.0496
x1 = 0.2452	0.0563
x1 = 0.3266	0.0598
x1 = 0.3884	0.0603
x1 = 0.4453	0.0581
x1 = 0.5022	0.0556
x1 = 0.5963	0.0493
x1 = 0.6844	0.0412
x1 = 0.7452	0.0346
x1 = 0.8553	0.0227
x1 = 0.9278	0.0126

[2]
Conditions	mass density, 293.15 K [kg/m3]	mass density, 298.15 K [kg/m3]	mass density, 303.15 K [kg/m3]	viscosity, 293.15 K [mPa·s]	viscosity, 298.15 K [mPa·s]	viscosity, 303.15 K [mPa·s]
x1 = 0.0956	834.48	830.55	826.97	3.3	2.884	2.456
x1 = 0.1784	856.72	852.86	849.3	3.346	3.05	2.431
x1 = 0.2445	874.89	871.15	867.57	3.373	3.071	2.433
x1 = 0.3055	892	888.27	884.73	3.548	3.028	2.504
x1 = 0.3874	915.45	911.87	908.31	3.595	3.119	2.638
x1 = 0.4434	931.79	928.29	924.72	3.893	3.426	2.899
x1 = 0.4996	948.45	945.03	941.5	4.198	3.74	3.211
x1 = 0.5944	977.19	973.95	970.39	5.167	4.682	3.921
x1 = 0.6573	996.67	993.5	990.11	6.087	5.497	4.578
x1 = 0.7236	1017.57	1014.53	1011.05	7.353	6.572	5.384
x1 = 0.7983	1041.7	1038.72	1035.32	9.017	8.117	6.428
x1 = 0.8554	1060.58	1057.59	1054.15	10.75	9.56	7.469
x1 = 0.9121	1079.61	1076.71	1073.26	12.57	11.01	8.726
x1 = 0.9778	1102.22	1099.35	1095.78	14.88	12.7	10.3

CCCCO [butan-1-ol]
[3]
Conditions	mass density [kg/m3]	viscosity [mPa·s]
293.15 K	809.52	2.941
298.15 K	805.54	2.572
303.15 K	801.92	2.275

CCC(C)O (stereo unspecified) [butan-2-ol]
[3]
Conditions	mass density [kg/m3]	viscosity [mPa·s]
293.15 K	805.54	3.625
298.15 K	802.06	2.998
303.15 K	798.45	2.489
